Here are results for 14 compounds from US8822517B2, “Arylosulfonamides for the treatment of CNS diseases” (Adamed SP. Z O.O., priority 2010, dated 2014).

One assay concerns the target dopaminergic D3 receptor (Homo sapiens, UniProt P35462). In words: Binding assay D3 (h), [3H]methyl-spiperone, CHO cells. Particulars: for inhibition at 1 µM: read-out: D3 [%]. On the set-up: expressed in transfected cells; host or cells: CHO cells. The gist of the method: (§1)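 At 1×10^−6 M, compounds were assessed for their effect on specific radioligand binding, computed as total less nonspecific binding (excess unlabelled ligand present).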

Assay [1] deals with T1, serotonine transporter (SERT) receptor (Homo sapiens, UniProt P31645).
T1 construct: expressed in transfected cells; host or cells: CHO cells
T1 sequence (P31645 whole entry): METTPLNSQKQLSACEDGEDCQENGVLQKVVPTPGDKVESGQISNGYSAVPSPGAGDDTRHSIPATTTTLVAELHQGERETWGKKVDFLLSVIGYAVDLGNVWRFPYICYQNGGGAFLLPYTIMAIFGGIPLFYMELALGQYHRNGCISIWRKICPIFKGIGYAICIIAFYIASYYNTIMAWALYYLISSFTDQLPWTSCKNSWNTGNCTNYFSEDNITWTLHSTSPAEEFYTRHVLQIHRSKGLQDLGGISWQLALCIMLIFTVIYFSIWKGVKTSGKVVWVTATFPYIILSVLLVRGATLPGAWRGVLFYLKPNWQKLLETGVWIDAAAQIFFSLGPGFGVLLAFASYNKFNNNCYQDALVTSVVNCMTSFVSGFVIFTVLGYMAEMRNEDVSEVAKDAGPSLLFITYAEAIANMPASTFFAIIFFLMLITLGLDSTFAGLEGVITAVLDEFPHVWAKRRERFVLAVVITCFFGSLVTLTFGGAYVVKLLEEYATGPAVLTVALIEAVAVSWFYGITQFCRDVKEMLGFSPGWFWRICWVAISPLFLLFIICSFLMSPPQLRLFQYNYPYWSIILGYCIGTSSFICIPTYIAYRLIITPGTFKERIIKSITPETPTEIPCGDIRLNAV
In words: Binding assay SERT (h), [3H]imipramine, CHO cells. Particulars: for inhibition at 1 µM: read-out: SERT [%]. The gist of the method: as §1

For assay [2], the target named is serotoninergic 5-HT6 receptor (Homo sapiens, UniProt P50406). Briefly: Binding assay 5-HT6 (h), [3H]LSD, CHO cells. Particulars: for inhibition at 1 µM: read-out: 5-HT6. On the set-up: expressed in transfected cells; host or cells: CHO cells. The gist of the method:
as §1

Assay [3] concerns the target serotoninergic 5-HT7 receptor (Homo sapiens, UniProt P34969). Briefly: Binding assay 5-HT7 (h), [3H]LSD, CHO cells. Particulars: for inhibition at 1 µM: read-out: 5-HT7. On the set-up: expressed in transfected cells; host or cells: CHO cells. The gist of the method: as §1
A further assay relates to adrenergic α1 receptor. In words: Binding assay α1 (non-selective), [3H]prazosin, rat cerebral cortex. To be noted: percent inhibition of control specific binding; compounds tested at 1×10^−6 M. The gist of the method: as §1
Assay [4] concerns the target T2, serotoninergic 5-HT1A receptor (Homo sapiens, UniProt P08908).
T2 sequence (P08908 1-422): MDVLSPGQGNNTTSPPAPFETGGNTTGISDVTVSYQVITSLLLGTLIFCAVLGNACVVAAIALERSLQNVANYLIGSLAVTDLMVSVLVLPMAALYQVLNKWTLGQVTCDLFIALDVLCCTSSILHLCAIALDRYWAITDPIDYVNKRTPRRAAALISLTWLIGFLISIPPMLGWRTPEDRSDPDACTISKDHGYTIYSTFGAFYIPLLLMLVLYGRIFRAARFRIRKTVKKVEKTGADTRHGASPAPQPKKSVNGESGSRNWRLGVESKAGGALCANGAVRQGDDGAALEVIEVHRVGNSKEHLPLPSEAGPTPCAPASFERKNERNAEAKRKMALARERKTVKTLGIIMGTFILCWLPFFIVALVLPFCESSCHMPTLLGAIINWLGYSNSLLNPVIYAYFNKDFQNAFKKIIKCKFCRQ
Briefly: Binding assay 5-HT1A (h), [3H]8-OH-DPAT, HEK-293 cells. On the set-up: expressed in transfected cells; host or cells: HEK-293 cells. To be noted: for inhibition at 1 µM: read-out: 5-HT1A. In a few lines: as §1

The target in assay [5] is serotoninergic 5-HT2A receptor (Homo sapiens, UniProt P28223). In words: Binding assay 5-HT2A (h), [3H]ketanserin, HEK-293 cells. On the set-up: expressed in transfected cells; host or cells: HEK-293 cells. Particulars: for inhibition at 1 µM: read-out: 5-HT2A. The gist of the method:
as §1

The target in the next assay is dopaminergic D2 receptor (Homo sapiens, UniProt P14416). Briefly: Binding assay D2S (h), [3H]methyl-spiperone, HEK-293 cells. On the set-up: expressed in transfected cells; host or cells: HEK-293 cells. To be noted: for inhibition at 1 µM: read-out: D2 [%]. The gist of the method: as §1
dopaminergic D2 receptor, sequence (P14416 1-414 isoform P14416-2): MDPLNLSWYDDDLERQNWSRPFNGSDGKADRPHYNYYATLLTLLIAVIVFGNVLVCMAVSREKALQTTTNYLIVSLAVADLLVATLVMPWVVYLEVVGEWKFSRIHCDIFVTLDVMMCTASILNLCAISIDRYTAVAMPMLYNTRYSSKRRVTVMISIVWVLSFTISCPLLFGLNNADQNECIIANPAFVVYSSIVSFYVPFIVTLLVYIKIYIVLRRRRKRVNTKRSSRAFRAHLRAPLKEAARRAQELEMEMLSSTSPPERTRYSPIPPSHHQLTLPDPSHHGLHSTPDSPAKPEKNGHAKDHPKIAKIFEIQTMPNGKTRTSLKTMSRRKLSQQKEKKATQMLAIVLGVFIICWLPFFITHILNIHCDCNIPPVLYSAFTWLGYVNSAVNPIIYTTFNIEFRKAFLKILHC
The mark [6] stands for this setting: percent inhibition of control specific binding, compounds tested at 1×10^−6 M.

serotoninergic 5-HT7 receptor, sequence (P34969 whole entry): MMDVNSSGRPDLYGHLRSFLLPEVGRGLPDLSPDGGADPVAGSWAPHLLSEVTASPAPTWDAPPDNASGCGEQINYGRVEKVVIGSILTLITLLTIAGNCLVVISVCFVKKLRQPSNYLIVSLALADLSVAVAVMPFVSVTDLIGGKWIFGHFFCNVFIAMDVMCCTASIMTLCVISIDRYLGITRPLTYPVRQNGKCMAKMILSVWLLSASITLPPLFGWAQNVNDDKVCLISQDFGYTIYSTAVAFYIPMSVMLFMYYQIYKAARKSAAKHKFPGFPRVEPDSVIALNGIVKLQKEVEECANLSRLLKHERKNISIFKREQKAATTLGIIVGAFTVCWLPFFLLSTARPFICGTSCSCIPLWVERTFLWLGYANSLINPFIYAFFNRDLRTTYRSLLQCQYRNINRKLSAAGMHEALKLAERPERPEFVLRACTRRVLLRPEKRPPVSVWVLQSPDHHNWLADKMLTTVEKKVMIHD
serotoninergic 5-HT2A receptor, sequence (P28223 whole entry): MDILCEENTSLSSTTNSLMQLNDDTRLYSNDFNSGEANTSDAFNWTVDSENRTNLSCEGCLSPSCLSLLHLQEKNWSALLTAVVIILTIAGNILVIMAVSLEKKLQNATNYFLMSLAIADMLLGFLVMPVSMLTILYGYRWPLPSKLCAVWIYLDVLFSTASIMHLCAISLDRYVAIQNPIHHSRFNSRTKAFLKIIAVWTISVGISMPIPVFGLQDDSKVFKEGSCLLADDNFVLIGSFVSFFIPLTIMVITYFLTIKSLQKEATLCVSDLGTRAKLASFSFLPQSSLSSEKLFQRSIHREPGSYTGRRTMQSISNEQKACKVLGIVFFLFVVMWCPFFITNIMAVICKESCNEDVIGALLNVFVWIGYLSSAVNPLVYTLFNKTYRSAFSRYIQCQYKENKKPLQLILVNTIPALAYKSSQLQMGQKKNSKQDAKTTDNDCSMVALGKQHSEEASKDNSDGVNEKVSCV
dopaminergic D3 receptor, sequence (P35462 whole entry): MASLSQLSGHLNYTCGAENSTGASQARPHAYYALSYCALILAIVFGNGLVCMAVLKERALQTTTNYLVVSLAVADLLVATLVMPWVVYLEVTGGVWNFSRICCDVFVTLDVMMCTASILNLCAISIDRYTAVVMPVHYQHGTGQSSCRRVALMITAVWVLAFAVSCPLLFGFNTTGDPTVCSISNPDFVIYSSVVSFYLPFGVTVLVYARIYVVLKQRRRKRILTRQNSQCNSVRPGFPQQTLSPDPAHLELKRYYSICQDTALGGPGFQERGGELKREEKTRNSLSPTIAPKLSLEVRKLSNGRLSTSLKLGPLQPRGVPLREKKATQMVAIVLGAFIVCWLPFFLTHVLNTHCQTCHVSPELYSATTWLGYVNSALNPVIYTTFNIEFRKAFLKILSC
serotoninergic 5-HT6 receptor, sequence (P50406 whole entry): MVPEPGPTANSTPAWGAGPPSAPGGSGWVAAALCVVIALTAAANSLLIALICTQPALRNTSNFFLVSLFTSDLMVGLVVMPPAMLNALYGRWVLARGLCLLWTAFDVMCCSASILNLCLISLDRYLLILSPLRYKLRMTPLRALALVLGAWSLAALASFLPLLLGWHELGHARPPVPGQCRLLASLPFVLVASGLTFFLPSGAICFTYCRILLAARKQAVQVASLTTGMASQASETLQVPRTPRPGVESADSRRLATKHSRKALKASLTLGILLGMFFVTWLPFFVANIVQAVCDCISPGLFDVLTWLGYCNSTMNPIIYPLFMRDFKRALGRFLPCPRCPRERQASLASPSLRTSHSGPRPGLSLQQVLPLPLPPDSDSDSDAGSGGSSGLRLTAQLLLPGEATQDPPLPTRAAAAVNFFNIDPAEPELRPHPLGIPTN

On to `Cc1cccc(S(=O)(=O)NCCCN2CCN(c3cccc4[nH]c(=O)[nH]c34)CC2)c1` [Compound 426, 3-Methyl-N-[3-[4-(2-oxo-1,3-dihydrobenzimidazol-4-yl)piperazin-1-yl]propyl]benzenesulphonamide], for which the inhibition at 1 µM is 94% on dopaminergic D3 receptor; -18% in assay [1]; -4% in assay [2]; 85% in assay [3]; 79% in assay [4]; 20% in assay [5]. Further, at dopaminergic D2 receptor, the inhibition at 1 µM was 28%. For the same compound, the “α1 [%]” value in the assay with adrenergic α1 receptor stood at 67%.

As to `O=S(=O)(NCCCCN1CCN(c2nsc3ccccc23)CC1)c1cccc(C(F)(F)F)c1` [Compound 235, N-[4-[4-(1,2-Benzothiazol-3-yl)piperazin-1-yl]butyl]-3-(trifluoromethyl)benzenesulphonamide], the inhibition at 1 µM on dopaminergic D3 receptor is 87%; in assay [1], 8%; in assay [2], 82%; in assay [3] it was 93%; in assay [4], 86%; in assay [5], 80%. Besides, on dopaminergic D2 receptor, the inhibition at 1 µM was 103%. The “α1 [%]” value with adrenergic α1 receptor came out at 95%.

Regarding `O=C1COc2c(cccc2N2CCN(CCCCNS(=O)(=O)c3cccc(Cl)c3)CC2)N1` [Compound 209, 3-Chloro-N-[4-[4-(3-oxo-4H-1,4-benzoxazin-8-yl)piperazin-1-yl]butyl]benzenesulphonamide], the inhibition at 1 µM at dopaminergic D3 receptor was 103%; in assay [1], -1%; in assay [2], 70%; in assay [3], 85%; in assay [4] it was 92%; in assay [5], 29%. Moreover, the inhibition at 1 µM at dopaminergic D2 receptor amounted to 82%. Moreover, the “α1 [%]” value in the assay on adrenergic α1 receptor is 90%.

As for `O=S(=O)(NCCCCN1CCC(c2noc3cc(F)ccc23)CC1)c1ccc(Cl)c(Cl)c1` [Compound 297, 3,4-Dichloro-N-[4-[4-(6-fluoro-1,2-benzoxazol-3-yl)piperidin-1-yl]butyl]benzenesulphonamide], the inhibition at 1 µM worked out at 100% at dopaminergic D3 receptor; 23% in assay [1]; 87% in assay [2]; 88% in assay [3]; 31% in assay [4]; 95% in assay [5]. Further, the inhibition at 1 µM at dopaminergic D2 receptor was found to be 93%. In addition, in the assay on adrenergic α1 receptor, the “α1 [%]” value stood at 100%.

`COc1ccc(S(=O)(=O)NCCCCN2CC=C(c3c[nH]c4ccc(Cl)cc34)CC2)cc1` [Compound 42, 4-Methoxy-N{4-[4-(5-chloro-1H-indol-3-yl)-3,6-dihydropyridin-1(2H)-yl]butyl}benzenesulphonamide]: the “D3 [%]” value at dopaminergic D3 receptor (setting [6]) came out at 101%. The “SERT [%]” value in assay [1] (setting [6]) is listed as 96%. Further, the 5-HT6 in assay [2] (setting [6]) stood at 96%. The same compound returned a 5-HT7 in assay [3] (setting [6]) of 76%. Besides, the “α1 [%]” value in the assay with adrenergic α1 receptor came out at 77%. This compound also showed a 5-HT1A in assay [4] (setting [6]) of 90%. In assay [5] (setting [6]), this compound gave a 5-HT2A of 77%. Further, the “D2 [%]” value at dopaminergic D2 receptor (setting [6]) amounted to 74%.

As for `Cc1cccc(S(=O)(=O)NCCCN2CCN(c3cccc4c3OCCO4)CC2)c1` [Compound 414, N-[3-[4-(2,3-Dihydro-1,4-benzodioxin-8-yl)piperazin-1-yl]propyl]-3-methylbenzenesulphonamide], the inhibition at 1 µM on dopaminergic D3 receptor is 81%; in assay [1] it was 18%; in assay [2] it was -15%; in assay [3], 94%; in assay [4] it was 98%; in assay [5] it was 76%. For the same compound, the inhibition at 1 µM at dopaminergic D2 receptor is 48%. For the same compound, the “α1 [%]” value with adrenergic α1 receptor is on record as 88%.

Turning to `O=S(=O)(NCCCN1CCN(c2cccc3c2OCCO3)CC1)c1cccc(Cl)c1` [Compound 411, 3-Chloro-N-[3-[4-(2,3-dihydro-1,4-benzodioxin-5-yl)piperazin-1-yl]propyl]benzenesulphonamide], the inhibition at 1 µM on dopaminergic D3 receptor is 52%; in assay [1] it was 12%; in assay [2] it was 41%; in assay [3], 89%; in assay [4], 95%; in assay [5], 4%. Besides, on dopaminergic D2 receptor, the inhibition at 1 µM was 40%. For the same compound, the “α1 [%]” value in the assay on adrenergic α1 receptor is on record as 87%.

As to `O=S(=O)(NCCCCN1CCN(c2cccc3c2OCCO3)CC1)c1cccc(F)c1` [Compound 388, N-[4-[4-(2,3-Dihydro-1,4-benzodioxin-5-yl)piperazin-1-yl]butyl]-3-fluorobenzenesulphonamide], the inhibition at 1 µM is 83% on dopaminergic D3 receptor; -28% in assay [1]; -20% in assay [2]; 90% in assay [3]; 92% in assay [4]; 19% in assay [5]. The inhibition at 1 µM on dopaminergic D2 receptor came to 50%. Also, the “α1 [%]” value in the assay on adrenergic α1 receptor is 91%.

Regarding `Cc1[nH]c2ccc(Cl)cc2c1C1=CCN(CCCNS(=O)(=O)c2ccc(F)cc2)CC1` [Compound 443, N-[3-[4-(5-Chloro-2-methyl-1H-indol-3-yl)-3,6-dihydro-2H-pyridin-1-yl]propyl]-4-fluorobenzenesulphonamide], the inhibition at 1 µM at dopaminergic D3 receptor is 71%; in assay [1], -9%; in assay [2], 92%; in assay [3], 54%; in assay [4] it was 59%; in assay [5], 67%. Also, the inhibition at 1 µM at dopaminergic D2 receptor stood at 22%. Besides, in the assay on adrenergic α1 receptor, the “α1 [%]” value was found to be 41%.

In the case of `O=S(=O)(NCCCCN1CCC(c2noc3cc(F)ccc23)CC1)c1cccc(C(F)(F)F)c1` [Compound 303, N-[4-[4-(6-Fluoro-1,2-benzoxazol-3-yl)piperidin-1-yl]butyl]-3-(trifluoromethyl)-benzenesulphonamide], the inhibition at 1 µM at dopaminergic D3 receptor stood at 97%; in assay [1], 9%; in assay [2], 90%; in assay [3], 98%; in assay [4], 35%; in assay [5] it was 96%. In addition, the inhibition at 1 µM on dopaminergic D2 receptor turned out to be 108%. Further, the “α1 [%]” value in the assay on adrenergic α1 receptor worked out at 97%.

For the compound `O=S(=O)(NCCCCN1CCC(c2noc3cc(F)ccc23)CC1)c1ccc2cn[nH]c2c1` [Compound 319, N-[4-[4-(6-Fluoro-1,2-benzoxazol-3-yl)piperidin-1-yl]butyl]-1H-indazole-6-sulphonamide], the inhibition at 1 µM at dopaminergic D3 receptor was 90%; in assay [1], 8%; in assay [2], 87%; in assay [3], 90%; in assay [4] it was 55%; in assay [5] it was 88%. For the same compound, the inhibition at 1 µM on dopaminergic D2 receptor stood at 109%. The “α1 [%]” value in the assay with adrenergic α1 receptor was determined as 94%.

`N#Cc1cccc(S(=O)(=O)NCCCCN2CCC(c3noc4cc(F)ccc34)CC2)c1` [Compound 306, 3-Cyano-N-[4-[4-(6-fluoro-1,2-benzoxazol-3-yl)piperidin-1-yl]butyl]benzenesulphonamide]: the inhibition at 1 µM is 99% on dopaminergic D3 receptor; -10% in assay [1]; 81% in assay [2]; 89% in assay [3]; 44% in assay [4]; 97% in assay [5]. Also, on dopaminergic D2 receptor, the inhibition at 1 µM was 106%. Besides, the “α1 [%]” value with adrenergic α1 receptor came out at 99%.

Take `O=S(=O)(NCCCN1CCN(c2cccc3c2OCCO3)CC1)c1ccc2c(c1)CCO2` [Compound 417, N-[3-[4-(2,3-Dihydro-1,4-benzodioxin-5-yl)piperazin-1-yl]propyl]-2,3-dihydrobenzofuran-5-sulphonamide]: the inhibition at 1 µM is 67% on dopaminergic D3 receptor; -11% in assay [1]; 24% in assay [2]; 62% in assay [3]; 100% in assay [4]; -48% in assay [5]. In addition, the inhibition at 1 µM on dopaminergic D2 receptor was 68%. Also, the “α1 [%]” value with adrenergic α1 receptor is 73%.

`Cc1[nH]c2ccc(Cl)cc2c1C1=CCN(CCCNS(=O)(=O)c2cccc(F)c2)CC1` [Compound 140, N-[3-[4-(5-Chloro-2-methyl-1H-indol-3-yl)-3,6-dihydro-2H-pyridin-1-yl]propyl]-3-fluorobenzenesulphonamide]: the inhibition at 1 µM was 73% at dopaminergic D3 receptor; 14% in assay [1]; 92% in assay [2]; 81% in assay [3]; 56% in assay [4]; 68% in assay [5]. The inhibition at 1 µM at dopaminergic D2 receptor amounted to 47%. For the same compound, the “α1 [%]” value in the assay on adrenergic α1 receptor worked out at 17%.
